Source: US20240068023A1 (The Trustees of Indiana University, priority 2021, published 2024)
Entries after “also recorded” stand apart in the source; their conditions may differ. Where two headings read alike, the source gives them in different places.

How the values were obtained:
[1] = system: children undergoing PE and PSF surgeries; assay: Postoperative opioid use, pain scores, FDI and hospital stay with multidose methadone-based multimodal analgesia (Example 1); format: in vivo, human; settings: for postoperative opioid use (morphine equivalents): current Example
[2] = system: adolescents undergoing PSF that received methadone; assay: Preliminary pharmacogenetic associations in 50 PSF adolescents that received methadone; format: in vivo, human
Source text: OPRM1 rs1799971 is also associated with susceptibility to dependence.

[3] = system: children undergoing PE and PSF surgeries; assay: CYP2B6 genetic associations with methadone-induced PONV and pain scores (Example 3); format: in vivo, human
Source text: This Example is a prospective, genotype-blinded, clinical observational study of children undergoing Nuss bar repair for pectus excavatum (PE) and posterior spinal fusion (PSF) repair for idiopathic scoliosis that received multidose methadone-based multimodal analgesia, performed in a tertiary care pediatric hospital.
Multimodal analgesia protocols as illustrated in TABLE 1 set forth above in Example 1 were followed for all the participants undergoing the surgeries.
The primary clinical outcome measured was PONV. The secondary outcome measured was maximum postoperative pain scores. Episodes of PONV were recorded as a binary outcome from nursing reports on electronic health records. Analgesic efficacy was described in terms of patient self-reported pain scores. Pain scores were collected every 2 to 4 h using a self-reported numeric rating scale ranging from 0 to 10.
Analyses were performed using the dominant, additive or recessive models to explore for possible associations. Associations were tested using ‘A’ as the referent allele and ‘a’ as the alternative allele under dominant model (i.e. AA vs. Aa/aa), additive model (i.e. AA vs. Aa vs. aa) and recessive model (i.e. AA/Aa vs. aa). Linear regression was used to investigate SNP associations for pain score. Poisson regression was used to investigate SNP associations for PONV. Unadjusted as well as covariate-adjusted analyses, adjusted for weight, race, age, surgery type and sex were performed. For primary outcome, PONV, the SNP's rate ratios (i.e. exponential of the slope parameter in the Poisson regression), p-values and 95% Cis were computed. For postoperative pain score, the SNPs' effect (i.e. the slope parameter in the linear regression model), p-values, and 95% confidence intervals (CIs) were computed.
Because eight SNPs were used for the final analysis, a Bonferroni correction was used for multiple comparisons for the primary outcome measure, which yielded a significance threshold of p=0.00625 [p=0.05/8 SNPs)].

[4] = system: adolescents undergoing PSF; settings: cited from earlier work; for postoperative opioid use (morphine equivalents): another adolescent PSF study, single larger intraoperative methadone dose; for mean morphine equivalent dose 0-72 hour: historical cohort
AAG = settings: plasma; cited from earlier work
[5] = cited from earlier work
[6] = system: children undergoing PE and PSF surgeries; assay: Regression of clinical outcomes on pharmacokinetic measures (Example 1, Table 3); settings: logistic regression; CI in next column
[7] = system: children undergoing PE and PSF surgeries; assay: Safety of multidose perioperative methadone: respiratory depression, PONV, QTc (Example 1)
[8] = Plasma R-, S- and total methadone concentrations after multiple small perioperative methadone doses (Example 1); settings: human, in vivo, 0.1 mg/kg/dose
[9] = equations 7, 10; decrease
Source text: Oral doses were either given as a tablet or a suspension depending on the patient's convenience. […] The time schedule was later modified to collect more samples through the 1st and 3rd inter-dose interval without samples through the 2n d interdose interval. This was done to aid in the optimal spread of the collected concentration time-points and improvement of estimation of absorption parameters of the oral doses. Some of the samples collected in a parallel study were also used whenever available with the consent of the patient to aid with the better estimation of the terminal elimination phase.
The first-order conditional estimation method with η-ε interaction (FOCE-I) was used throughout the model building process. The dose of the drug, concentrations of the drug and the metabolite were converted to their molar counterparts to aid in the accurate estimation of the pharmacokinetic parameters. Perl-Speaks-NONMEM v.4.9.0, R v.4.0.4 (R Foundation for Statistical Computing) with the Xpose4 package v.4.6.0, RStudio v1.4 and Pirana v.2.9.9 were used for data exploration, visualization, diagnostics and automation. Measured plasma concentrations that were below the LLOQ were dealt with using the M1 method (discarding concentrations below the LLOQ and estimate the PK parameters using the remaining concentrations). […] Model assessment was based on successful minimization, OFV, the proper running of the covariance step, relative standard error of the parameter estimates, the goodness of fit plots and eta-shrinkage. Model validation was done using visual predictive checks and a bootstrapping procedure. The predictive performance of the models was evaluated using prediction corrected visual predictive checks (n=1000). The robustness of the final parameter estimates and the stability of the final model were validated using bootstrapping by generating 1000 resampled datasets with replacement.
The model building process was done in a step-wise process. Multiple disposition models (one-, two- and three-compartment) were evaluated. Absorption models with various absorption parameters (first order absorption with and without lag, transit compartment models) were tried. Bioavailability was estimated as each patient had both intravenous and oral dose data. […] Vf was fixed to 1 in the model due to unidentifiability of the metabolite parameters as there were no urine data available for either the drug or the metabolite. CLF is the fraction of CL, the total clearance of the drug that contributes to CL2, the clearance towards the formation of the metabolite. […]
The demographic covariates checked were biological gender, body weight, fat free mass, BMI and race. […] AAG was measured at every time-point the concentrations were measured and were therefore used as a time-varying covariate in the model. […]

[10] = postoperative day 1, median (IQR)
[11] = postoperative day 2, median (IQR)
[12] = postoperative day 3, median (IQR)
[13] = postoperative day 4, median (IQR)
[14] = postoperative day 5, median (IQR)

With CCC(=O)C(CC(C)N(C)C)(c1ccccc1)c1ccccc1 (racemic) [methadone] as the compound, how does the “mean morphine equivalent, multi-dose methadone regimen” value ([1]; 0-72 hour, standard deviation 28.4) read?
Its value is 113.25.

And the “median FDI score” value ([1]; 3 months postoperatively, median (IQR))?
The value was 4 (0-9.5).

What about the “median FDI score” value ([1]; 6 months postoperatively, median (IQR)) of the same compound?
The value was 2 (0-4).

And the “median FDI score” value ([1]; 12 months postoperatively, median (IQR))?
Its value is 0 (0-3.5).

What about the “Average pain scores during the entire in-hospital stay” value ([1]; PE) of the same compound?
Its value is 3.60.

What about the median hospital stay ([1]; PE) of the same compound?
Its median hospital stay is 4 days.

What about the “Average pain scores during the entire in-hospital stay” value ([1]; PSF) of the same compound?
The value was 3.95.

And the median hospital stay ([1]; PSF)?
The median hospital stay was 3 days.

And the “median total opioid usage” value ([1]; following PE)?
The value was 2.6 mg/kg.

And the “median total opioid usage” value ([1]; following PSF)?
The value was 2.1 mg/kg.

What about the “Average morphine equivalent dose” value ([1]; median (IQR)) of the same compound?
Its value is 0.66 (0.59-0.74) mg/kg/day.

What about the “median usage of the common rescue opioids” value ([1]; not different between the surgeries) of the same compound?
Its value is 0.03 mg/kg morphine equivalents.

And the Average pain score ([1]; numeric rating scale 0 to 10, median (IQR))?
Its Average pain score is 3.53 (2.73-4.80).

And the “postoperative opioid use (morphine equivalents)” value (“postoperative opioid use” for short) ([1]; postoperative day 1)?
The value was 0.6 mg/kg.

And the Pain scores [1, 10]?
Its Pain scores is 3.5 (2.3-5.1).

And the “morphine equivalent units, including methadone doses” value (shortened to “morphine equivalent units”) [1, 10]?
Its value is 0.61 (0.56-0.65) MEU/kg.

What about the “postoperative opioid use” value ([1]; postoperative day 2) of the same compound?
Its value is 0.88 mg/kg.

And the Pain scores [1, 11]?
Its Pain scores is 3.4 (2.9-4.6).

And the “morphine equivalent units” value [1, 11]?
The value was 0.88 (0.68-1.06) MEU/kg.

What about the “postoperative opioid use” value ([1]; postoperative day 3) of the same compound?
Its value is 0.64 mg/kg.

What about the Pain scores [1, 12] of the same compound?
Its Pain scores is 3.7 (2.0-5.2).

What about the “morphine equivalent units” value [1, 12] of the same compound?
Its value is 0.58 (0.37-0.85) MEU/kg.

What about the Pain scores [1, 13] of the same compound?
Its Pain scores is 3.8 (2.7-5.0).

What about the “morphine equivalent units” value [1, 13] of the same compound?
The value was 0.42 (0.35-0.58) MEU/kg.

What about the Pain scores [1, 14] of the same compound?
Its Pain scores is 3.7 (3.3-4.4).

And the “morphine equivalent units” value [1, 14]?
The value was 0.59 (0.21-0.67) MEU/kg.

And the “mean morphine equivalent dose in the first 72 postoperative hours” value ([1]; printed as mean (95% CI: 98.5-131.8))?
The value was 120.2 mg.

And the opioid use reduction ([1]; vs historical PCA opioids without intraoperative methadone, first 72 postoperative hours)?
The opioid use reduction was 58.67%.

What about the opioid use reduction ([1]; vs historical single intraoperative methadone of 0.1 mg/kg) of the same compound?
Its opioid use reduction is 59.12%.

And the opioid use reduction ([1]; vs historical single intraoperative methadone of 0.2 mg/kg)?
Its opioid use reduction is 47.81%.

And the opioid use reduction ([1]; vs historical single intraoperative methadone of 0.3 mg/kg)?
Its opioid use reduction is 48.76%.

What about the “average in-hospital opioid use” value ([2]; OPRM1 rs1799971 AA genotype) of the same compound?
Its value is 33.2 ± 8.0 mg.

And the “average in-hospital opioid use” value ([2]; OPRM1 rs1799971 GG and GA genotype)?
The value was 40.1 ± 6.1 mg.

What about the hospital stay ([2]; adolescents other than FAAH rs3766246 wild type) of the same compound?
Its hospital stay is 2.6 ± 0.8 days.

And the “lower in-hospital opioid use, homologous/heterologous variants of FAAH rs3766246 and rs4141964” value ([2]; compared with the wild type)?
Its value is 15-20%.

And the “higher average in-hospital opioid use, OPRM1 rs1799971 GG and GA vs AA genotype” value ([2]; in vivo)?
The value was 20%.

What about the “longer hospital stay, wild type of FAAH rs3766246” value ([2]; than others) of the same compound?
Its value is 1 days.

And the “Morphine equivalent - Fusion” value ([3]; mean)?
The value was 0.6 mg/kg.

What about the “Morphine equivalent - Pectus” value ([3]; mean) of the same compound?
Its value is 0.7 mg/kg.

What about the “Length of hospital stay” value ([3]; mean, 53 children) of the same compound?
The value was 2.7 days.

And the “Beta, patient reported pain scores” value ([3]; rs4803419, Recessive model TT vs CC/TT (so in the source), Covariate adjusted analysis)?
The value was −1.70.

What about the “Beta, patient reported pain scores” value ([3]; rs4803419, Recessive model TT vs CC/TT (so in the source), Unadjusted analysis) of the same compound?
The value was −1.78.

What about the “Beta, patient reported pain scores” value ([3]; rs10500282, Additive Model CC vs TT, Covariate adjusted analysis) of the same compound?
The value was −2.61.

And the “Beta, patient reported pain scores” value ([3]; rs10500282, Additive Model CC vs TT, Unadjusted analysis)?
The value was −2.00.

What about the “Beta, patient reported pain scores” value ([3]; rs10500282, Additive Model TC vs TT, Covariate adjusted analysis) of the same compound?
The value was 1.31.

And the “Beta, patient reported pain scores” value ([3]; rs10500282, Additive Model TC vs TT, Unadjusted analysis)?
Its value is 1.33.

What about the “Beta, patient reported pain scores” value ([3]; rs10500282, Dominant model TC/CC vs TT, Covariate adjusted analysis) of the same compound?
Its value is 1.18.

And the “Beta, patient reported pain scores” value ([3]; rs10500282, Dominant model TC/CC vs TT, Unadjusted analysis)?
Its value is 1.16.

What about the “Beta, patient reported pain scores” value ([3]; rs11882424, Additive Model TC vs TT, Covariate adjusted analysis) of the same compound?
The value was 2.12.

What about the “Beta, patient reported pain scores” value ([3]; rs11882424, Additive Model TC vs TT, Unadjusted analysis) of the same compound?
Its value is 2.19.

And the “Beta, patient reported pain scores” value ([3]; rs11882424, Dominant model TC/CC vs TT, Covariate adjusted analysis)?
The value was 2.12.

What about the “Beta, patient reported pain scores” value ([3]; rs11882424, Dominant model TC/CC vs TT, Unadjusted analysis) of the same compound?
Its value is 2.19.

What about the “incidence of postoperative respiratory depression” value ([4]; 7 out of 31 receiving intraoperative methadone, first 48 hours) of the same compound?
Its value is 22.6%.

And the “postoperative opioid use” value ([4]; postoperative day 1)?
Its value is 0.54 mg/kg.

What about the “postoperative opioid use” value ([4]; postoperative day 2) of the same compound?
The value was 1.08 mg/kg.

What about the “postoperative opioid use” value ([4]; postoperative day 3) of the same compound?
Its value is 1.29 mg/kg.

And the “mean morphine equivalent dose 0-72 hour” value ([4]; single intraoperative methadone 0.3 mg/kg)?
The value was 221.

And the “mean morphine equivalent dose 0-72 hour” value ([4]; single intraoperative methadone of 0.1 mg/kg)?
The value was 277 mg.

And the “PONV incidence in other studies” value ([4]; in vivo)?
Its value is 33-38%.

What about the “incidence of respiratory depression” value ([4]; large observational study, intraoperative methadone of 0.14 mg/kg and postoperative opioids) of the same compound?
Its value is 37%.

And the “bound to AAG” value (AAG)?
Its value is 80-90%.

What about the “contribution of CYP3A4 to the metabolism of the drug” value ([5]; in vivo) of the same compound?
Its value is “more than 50%”.

And the “parent drug eliminated in urine” value ([5]; in vivo)?
Its value is 10-20%.

What about the “inter-individual variation in blood levels after methadone administration” value ([5]; up to) of the same compound?
The value was at most 17 fold.

And the “OR, Nausea/Vomiting vs Methadone dose per kg per day” value [6]?
Its value is 3.1e3.

What about the “episodes of PONV” value ([7]; 38 children) of the same compound?
The value was 18.

What about the respiratory depression observed ([7]; 38 children receiving multiple dose of methadone) of the same compound?
Its respiratory depression observed is 0%.

And the “respiratory depression (in words)” value ([7]; 38 children, 95% Wilson binomial confidence [0, 0.09])?
The value was “No child in this Example had respiratory depression; also recorded: no patient had respiratory depression”.

And the “Postoperative QTc” value ([7]; median (IQR), Bazett's formula)?
Its value is 431 (414-440) ms.

What about the “postoperative QTc longer than preoperative QTc interval” value ([7]; median, IQR -10, 28) of the same compound?
Its value is 9 ms.

And the “patients with PONV” value ([7]; of 38 children)?
The value was 12.

And the Cmax [8]?
The Cmax was 24.7 ng/mL.

What does the source list for CCC(=O)C(C[C@@H](C)N(C)C)(c1ccccc1)c1ccccc1 [R-methadone]?
fractional change of V2 per active allele rs17650 (ORM1) [9]: 0.443; proportional change of V2 per unit AAG conc from 94.76 [9]: 0.00291

Which results are given for CCC(=O)C(C[C@H](C)N(C)C)(c1ccccc1)c1ccccc1 [S-methadone]?
fractional change of V2 per active allele rs17650 (ORM1) [9]: 0.526; proportional change of V2 per unit AAG conc from 94.76 [9]: 0.00192
